The values below come from patent publication US20200165312A1, “COSMETIC COMPOSITION FOR IMPROVING SKIN CONDITIONS COMPRISING FUSION PROTEIN INCLUDING SKIN PENETRATION ENHANCING PEPTIDE” (LG HOUSEHOLD & HEALTH CARE LTD., priority 2017, published 2020).

For data set [1] the following is noted: amount present in the porcine skin by HPLC, relative to control peptide.
The conditions of data set [2]: 2 μg in donor chamber, 16 hours, amount in receiver chamber relative to control peptide.
The next data set concerns dermal papilla cells. Kind of data set: Hair follicle stem cell proliferation: dermal papilla cells, Cell Counter Kit-8. Type of data set: cell-based. The following applies: 1 ng/mL T-VEGF or VEGF, one day; control = 100. The procedure: (§1) Specifically, dermal papilla cells were inoculated onto a 96-well plate and cultured for 24 hours to obtain cultures at a density of 6,000 cells per well. The cultures were washed with PBS and cultured in a serum-free DMEM medium for one day. The cells were washed with PBS again and cultured in a serum-free DMEM medium supplemented with 1 ng/mL T-PDGFa or PDGFa for one day. The cultures were obtained therefrom and a difference between proliferated amounts of cells was quantitively analyzed using the Cell Counter Kit-8 (Dojindo). Here, dermal papilla cells cultured in a serum-free DMEM medium without T-PDGFa or PDGFa were used as a control (Table 6).
Specifically, dermal papilla cells were inoculated onto a 96-well plate and cultured for 24 hours to obtain cultures at a density of 6,000 cells per well. The cultures were washed with PBS and cultured in a serum-free DMEM medium for one day. […] The cultures were obtained therefrom and a difference between proliferated amounts of cells was quantitively analyzed using the Cell Counter Kit-8 (Dojindo).
as §1, with “T-IGF-1” for “T-PDGFa”, “IGF-1” for “PDGFa”, “15).” for “6).”
as §1, with “10” for “1”, “T-KGF” for “T-PDGFa”, “KGF” for “PDGFa”, “19).” for “6).”
as §1, with “10” for “1”, “T-Tβ4” for “T-PDGFa”, “Tβ4” for “PDGFa”, “23).” for “6).”

The subject of data set [3] is human umbilical vein endothelial cells. Kind of data set: Endothelial cell proliferation, Cell Counter Kit-8. The class given is cell-based. To be noted: 100 ng/mL T-VEGF or VEGF, serum-free M199, one day; control = 100. As for the experimental part:
Specifically, human umbilical vein endothelial cells were inoculated onto a 96-well plate and cultured for 24 hours to obtain cultures at a density of 5,000 cells per well. The cultures were washed with PBS and cultured in a serum-free M199 medium for 16 hours. […] The cultures were obtained therefrom and a difference between proliferated amounts of cells was quantitively analyzed using the Cell Counter Kit-8 (Dojindo).
Specifically, human umbilical vein endothelial cells were inoculated onto a 96-well plate and cultured for 24 hours to obtain cultures at a density of 5,000 cells per well. The cultures were washed with PBS and cultured in a serum-free M199 medium for 16 hours. The cells were washed with PBS again and cultured in a serum-free M199 medium supplemented with 100 ng/mL T-Tβ4 or Tβ4 for one day. The cultures were obtained therefrom and a difference between proliferated amounts of cells was quantitively analyzed using the Cell Counter Kit-8 (Dojindo). Here, human umbilical vein endothelial cells cultured in a serum-free M199 medium without T-Tβ4 or Tβ4 were used as a control (Table 22).

The subject of a further data set is dermal fibroblasts. The data set is described as follows: Hyaluronic acid (HA) production in dermal fibroblasts (ELISA). Type of data set: cell-based, human. To be noted: 10 ng/mL T-VEGF or VEGF, two days; control = 100. As for the experimental part: Specifically, dermal fibroblasts were inoculated onto a 24-well plate and cultured for 24 hours to obtain cultures having a saturation degree of 70 to 80%. The cultures were washed with PBS and cultured in a serum-free DMEM medium including 10 ng/mL T-PDGFa or PDGFa for two days. A supernatant was obtained therefrom and the amount of hyaluronic acid (HA) produced and released in the culture solution was quantitively analyzed using an ELISA kit (R&D Systems) (Table 5).
Specifically, dermal fibroblasts were inoculated onto a 24-well plate and cultured for 24 hours to obtain cultures having a saturation degree of 70 to 80%. […] A supernatant was obtained therefrom and the amount of hyaluronic acid (HA) produced and released in the culture solution was quantitively analyzed using an ELISA kit (R&D Systems) (Table 9).
On the technique in general: An ELISA detects its analyte on a solid surface through an enzyme-linked reagent.

For the next data set, the system named is C2C12 cells. Kind of data set: Inhibition of muscle contraction: contractions of C2C12 cells co-cultured with neuroblasts. The class given is cell-based. To be noted: 50 ppm, 2 hours, medium without FBS, counted for 30 seconds; FIG. 1. The procedure: Then, the number of contractions of the C2C12 cells was measured for 30 second at the initial stage of cell contraction and all of the medium was removed, followed by washing three times with PBS. The cells were reacted for 2 hours in a medium supplemented with 50 ppm of the fusion peptide without the FBS. Then, the number of contractions of the C2C12 cells was measured for 30 seconds to identify the degree of inhibiting muscle contraction.

Where a SMILES comes first, the peptide text is derived from it. Where no end group is shown, it is not given here. The star is where a group is joined. Palmitoyl = CCCCCCCCCCCCCCCC(=O)*

On to `CCCCCCCCCCCCCCCC(=O)N[C@@H](Cc1ccc(O)cc1)C(=O)N1CCC[C@H]1C(=O)N[C@@H](Cc1c[nH]c2ccccc12)C(=O)N[C@H](C(=O)N[C@@H](CCC(N)=O)C(=O)N[C@@H](CCCNC(=N)N)C(=O)N[C@@H](Cc1ccccc1)C(=O)N[C@@H](CC(N)=O)C(=O)NCC(=O)N[C@@H](CO)C(=O)N[C@@H](CC(C)C)C(=O)N[C@@H](CC(N)=O)C(=O)N[C@H](C(=O)N[C@@H](Cc1c[nH]cn1)C(=O)N[C@@H](CC(C)C)C(=O)N[C@@H](C)C(=O)N1CCC[C@H]1C(=O)N[C@H](C(=O)N[C@@H](CC(C)C)C(=O)O)[C@@H](C)CC)[C@@H](C)O)[C@@H](C)O` [Fusion protein including [Pal]YPWTQRF] (Palmitoyl-YPWTQRFNGSLNTHLAPIL-OH), for which the “Relative penetration (%)” value in data set [1] is reported as 6290 ± 1350%. Also, the “Penetration enhancement (%)” value in data set [2] came to 280 ± 15%.
For VEGF, the “Proliferation (%)” value with dermal papilla cells is 340 ± 50%; in data set [3], 170 ± 10%. In addition, the “Production (%) of hyaluronic acid (HA)” value with dermal fibroblasts stood at 220 ± 20%.
“Acetyl-Glu-Glu-Met-Gln-Arg-Arg (Ac-EEMQRR) [Argireline ™, neurotransmitter release regulating peptide used as control peptide]”: the “number of contractions of the C2C12 cells” value in the data set on C2C12 cells is “reduced”.
